The values below come from US10526316B2, “Quinoxaline and pyridopyrazine derivatives as PI3Kβ inhibitors” (Janssen Pharmaceutica NV, priority 2015, dated 2020).

Assay [1] concerns the target T1, PI3Kβ (Homo sapiens, UniProt P42338).
T1 construct: purchased DiscoveRx Corporation, San Diego (contract service, KINOMEscan)
As to the kind of experiment: Enzyme binding assay (KINOMEscan, DiscoveRx). The following applies: PIK3Cβ_h, read-out: Kd PIK3Cβ_h. In outline:
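Values are Kd in nM, the binding constant of each inhibitor for the kinase, obtained from a KINOMEscan enzyme binding assay.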

Assay [2] addresses T2, kinase enzymes (Homo sapiens, UniProt P42336).
T2 construct: purchased DiscoveRx Corporation, San Diego (contract service, KINOMEscan)
As to the kind of experiment: Enzyme binding assay (KINOMEscan, DiscoveRx), further kinases of Table A. To be noted: PIK3Cα_h. In outline: (§1)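 Affinity for each kinase was determined by KINOMEscan profiling.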

The target in assay [3] is T3, kinase enzymes (Homo sapiens, UniProt P42345).
T3 construct: purchased DiscoveRx Corporation, San Diego (contract service, KINOMEscan)
The assay is described as above. To be noted: MTOR_h. The essentials:
as §1

Assay [4] deals with T4, kinase enzymes (Homo sapiens, UniProt P48736).
T4 construct: purchased DiscoveRx Corporation, San Diego (contract service, KINOMEscan)
T4 sequence (P48736 whole entry): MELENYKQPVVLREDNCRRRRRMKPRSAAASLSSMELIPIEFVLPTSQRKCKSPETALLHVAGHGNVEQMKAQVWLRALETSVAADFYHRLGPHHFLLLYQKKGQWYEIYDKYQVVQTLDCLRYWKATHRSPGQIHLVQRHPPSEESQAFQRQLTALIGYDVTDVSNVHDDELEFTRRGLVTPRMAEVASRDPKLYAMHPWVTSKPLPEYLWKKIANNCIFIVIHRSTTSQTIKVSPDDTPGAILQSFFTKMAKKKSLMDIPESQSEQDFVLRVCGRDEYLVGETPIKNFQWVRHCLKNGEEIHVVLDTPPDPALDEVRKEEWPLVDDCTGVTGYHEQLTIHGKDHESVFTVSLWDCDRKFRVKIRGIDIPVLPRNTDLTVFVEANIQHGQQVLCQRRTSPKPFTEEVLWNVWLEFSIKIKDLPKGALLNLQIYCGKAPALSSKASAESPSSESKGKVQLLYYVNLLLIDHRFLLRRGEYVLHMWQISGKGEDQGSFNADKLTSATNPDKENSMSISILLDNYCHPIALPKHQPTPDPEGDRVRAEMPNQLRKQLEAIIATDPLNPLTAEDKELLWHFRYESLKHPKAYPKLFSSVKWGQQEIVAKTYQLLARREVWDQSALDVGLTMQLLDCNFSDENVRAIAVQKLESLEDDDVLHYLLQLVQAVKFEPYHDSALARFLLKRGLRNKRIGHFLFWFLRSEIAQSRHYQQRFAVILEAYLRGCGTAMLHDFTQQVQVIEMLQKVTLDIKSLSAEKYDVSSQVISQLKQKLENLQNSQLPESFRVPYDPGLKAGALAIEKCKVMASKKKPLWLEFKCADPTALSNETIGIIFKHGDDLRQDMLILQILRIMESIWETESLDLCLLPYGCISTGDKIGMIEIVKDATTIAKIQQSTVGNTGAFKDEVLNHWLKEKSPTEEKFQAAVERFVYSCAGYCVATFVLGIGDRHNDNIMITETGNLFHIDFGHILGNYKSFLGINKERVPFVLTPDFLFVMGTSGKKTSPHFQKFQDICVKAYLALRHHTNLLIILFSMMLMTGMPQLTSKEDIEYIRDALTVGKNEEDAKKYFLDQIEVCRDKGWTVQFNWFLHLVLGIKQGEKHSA
The assay is described as above. The following applies: PIK3Cγ_h. In outline:
as §1

Assay [5] has as its target T5, PI3Kδ (Homo sapiens, UniProt O00329).
T5 construct: purchased DiscoveRx Corporation, San Diego (contract service, KINOMEscan)
T5 sequence (O00329 1-1044): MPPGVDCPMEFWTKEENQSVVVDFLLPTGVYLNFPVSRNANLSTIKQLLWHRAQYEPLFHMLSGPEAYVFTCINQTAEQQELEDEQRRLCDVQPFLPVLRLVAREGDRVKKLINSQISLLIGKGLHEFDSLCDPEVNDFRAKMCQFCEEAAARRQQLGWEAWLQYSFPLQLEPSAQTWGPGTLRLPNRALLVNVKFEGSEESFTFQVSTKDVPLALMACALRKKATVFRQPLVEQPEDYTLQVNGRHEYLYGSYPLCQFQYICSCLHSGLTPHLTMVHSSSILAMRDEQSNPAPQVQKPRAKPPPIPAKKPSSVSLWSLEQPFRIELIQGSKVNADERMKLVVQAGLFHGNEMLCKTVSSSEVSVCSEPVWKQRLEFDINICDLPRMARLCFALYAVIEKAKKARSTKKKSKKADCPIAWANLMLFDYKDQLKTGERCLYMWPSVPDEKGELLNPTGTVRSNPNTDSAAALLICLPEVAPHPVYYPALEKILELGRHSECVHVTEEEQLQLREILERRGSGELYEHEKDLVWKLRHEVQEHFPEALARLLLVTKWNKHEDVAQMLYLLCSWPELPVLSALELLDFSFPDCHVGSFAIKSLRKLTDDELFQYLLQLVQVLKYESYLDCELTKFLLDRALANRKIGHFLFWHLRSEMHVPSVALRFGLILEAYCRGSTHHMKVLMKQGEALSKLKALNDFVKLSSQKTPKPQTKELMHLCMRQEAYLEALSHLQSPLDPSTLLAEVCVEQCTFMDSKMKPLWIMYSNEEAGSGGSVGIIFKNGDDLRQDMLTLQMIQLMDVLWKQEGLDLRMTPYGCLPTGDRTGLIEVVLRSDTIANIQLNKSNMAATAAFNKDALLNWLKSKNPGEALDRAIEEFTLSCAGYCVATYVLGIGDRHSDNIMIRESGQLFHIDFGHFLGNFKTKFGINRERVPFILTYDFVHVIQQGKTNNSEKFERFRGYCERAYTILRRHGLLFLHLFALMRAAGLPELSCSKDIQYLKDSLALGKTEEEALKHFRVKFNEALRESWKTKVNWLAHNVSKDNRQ
The experiment in a line: Enzyme binding assay (KINOMEscan, DiscoveRx). To be noted: PIK3Cδ_h. The essentials:
as §1

Assay [6] relates to Akt phosphorylated at Ser473 in PC-3 cells. The experiment in a line: Cellular assay: phosphorylation of Akt at Ser473 in PC-3 cells (MSD ELISA). The format is cell-based. The following applies: PC-3 cells, 60 min compound incubation, MSD ELISA, read-out: IC50 pAkt_S473. In outline:
(§2)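 Compound treatment of PC-3 cells lasted 60 min at 37° C (0.3% DMSO). Lysates were then applied to plates carrying capture antibodies for the relevant phospho-site, and bound Akt was detected with an electrochemiluminescent anti-total Akt antibody; IC50s derive from five-point curves.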
Background: An ELISA detects its analyte on a solid surface through an enzyme-linked reagent.

For assay [7], the system named is Akt phosphorylated at Thr308 in PC-3 cells. The experiment in a line: Cellular assay: phosphorylation of Akt at Thr308 in PC-3 cells (MSD ELISA). The following applies: PC-3 cells, 60 min compound incubation, MSD ELISA, read-out: IC50 pAkt_Thr308. The class given is cell-based. In outline:
as §2

Like-named read-outs stand apart in the source and are kept apart here.

T1 sequence (P42338 whole entry): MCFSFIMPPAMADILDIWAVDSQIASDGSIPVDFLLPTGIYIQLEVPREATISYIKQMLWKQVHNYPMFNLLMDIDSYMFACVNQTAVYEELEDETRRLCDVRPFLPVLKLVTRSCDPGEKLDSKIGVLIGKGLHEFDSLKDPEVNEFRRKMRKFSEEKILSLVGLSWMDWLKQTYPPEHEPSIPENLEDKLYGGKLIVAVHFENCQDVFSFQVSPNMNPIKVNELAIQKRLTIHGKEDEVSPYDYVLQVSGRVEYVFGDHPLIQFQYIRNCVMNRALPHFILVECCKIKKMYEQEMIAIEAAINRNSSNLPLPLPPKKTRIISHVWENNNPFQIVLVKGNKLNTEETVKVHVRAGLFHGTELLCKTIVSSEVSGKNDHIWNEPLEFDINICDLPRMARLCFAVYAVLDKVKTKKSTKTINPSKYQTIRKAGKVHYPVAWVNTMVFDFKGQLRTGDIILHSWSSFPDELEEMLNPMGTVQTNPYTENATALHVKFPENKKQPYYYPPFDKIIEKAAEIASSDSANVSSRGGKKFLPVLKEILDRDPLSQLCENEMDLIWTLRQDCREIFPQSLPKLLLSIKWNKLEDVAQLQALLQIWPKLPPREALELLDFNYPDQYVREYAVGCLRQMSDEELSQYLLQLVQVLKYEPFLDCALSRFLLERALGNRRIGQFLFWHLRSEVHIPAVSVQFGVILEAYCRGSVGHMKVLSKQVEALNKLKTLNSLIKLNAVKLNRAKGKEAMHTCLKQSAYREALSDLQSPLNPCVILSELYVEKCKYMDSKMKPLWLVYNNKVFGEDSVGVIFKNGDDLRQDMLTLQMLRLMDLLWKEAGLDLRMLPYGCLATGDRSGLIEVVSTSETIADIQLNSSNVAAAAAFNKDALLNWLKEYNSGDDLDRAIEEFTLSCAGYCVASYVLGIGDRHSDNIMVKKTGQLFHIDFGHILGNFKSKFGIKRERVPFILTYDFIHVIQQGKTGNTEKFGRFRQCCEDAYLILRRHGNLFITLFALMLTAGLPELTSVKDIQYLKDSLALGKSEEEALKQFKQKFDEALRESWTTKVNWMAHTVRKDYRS
T2 sequence (P42336 whole entry): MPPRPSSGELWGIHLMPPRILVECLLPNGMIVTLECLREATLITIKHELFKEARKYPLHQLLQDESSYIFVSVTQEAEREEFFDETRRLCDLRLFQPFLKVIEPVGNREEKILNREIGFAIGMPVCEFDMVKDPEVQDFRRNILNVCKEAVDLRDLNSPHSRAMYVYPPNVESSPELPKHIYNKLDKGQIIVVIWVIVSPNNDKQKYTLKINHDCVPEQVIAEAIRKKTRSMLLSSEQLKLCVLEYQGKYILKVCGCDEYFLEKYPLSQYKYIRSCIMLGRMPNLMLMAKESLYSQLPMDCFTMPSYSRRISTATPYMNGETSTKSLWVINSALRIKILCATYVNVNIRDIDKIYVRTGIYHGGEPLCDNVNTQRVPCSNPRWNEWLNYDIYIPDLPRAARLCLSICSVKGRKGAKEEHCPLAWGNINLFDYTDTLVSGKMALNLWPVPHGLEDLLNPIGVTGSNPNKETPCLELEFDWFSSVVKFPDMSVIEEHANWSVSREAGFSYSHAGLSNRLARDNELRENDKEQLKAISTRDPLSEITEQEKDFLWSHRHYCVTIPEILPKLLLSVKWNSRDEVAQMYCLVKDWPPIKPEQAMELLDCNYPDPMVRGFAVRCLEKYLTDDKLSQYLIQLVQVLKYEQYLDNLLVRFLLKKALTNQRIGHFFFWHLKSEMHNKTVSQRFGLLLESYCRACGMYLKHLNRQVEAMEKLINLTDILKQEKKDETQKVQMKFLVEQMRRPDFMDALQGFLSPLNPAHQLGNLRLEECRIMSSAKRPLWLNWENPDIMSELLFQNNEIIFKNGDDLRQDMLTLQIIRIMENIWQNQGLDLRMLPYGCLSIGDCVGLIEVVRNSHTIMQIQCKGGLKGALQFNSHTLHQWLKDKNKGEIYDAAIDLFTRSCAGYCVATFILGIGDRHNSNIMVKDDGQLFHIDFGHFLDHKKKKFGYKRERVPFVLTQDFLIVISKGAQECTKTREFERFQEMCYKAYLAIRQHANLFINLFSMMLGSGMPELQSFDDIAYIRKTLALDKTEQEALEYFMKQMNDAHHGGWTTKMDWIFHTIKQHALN

Broadly, the Kd is the equilibrium constant for the complex coming apart. Usually IC50 stands for the point on the concentration scale where inhibition reaches its midpoint. In the case of `CC(Oc1cc(F)c(F)c(F)c1)c1cc(C(=O)N(C)C2CCNC2)cc2ncc(N3CCOCC3)nc12` (single isomer, unassigned) [Compound 404b], the Kd in assay [1] is 1 nM; in assay [2] it was 5250 nM; in assay [3], more than 30200 nM; in assay [4] it was 16600 nM; in assay [5], 1070 nM. The IC50 came to 398 nM in assay [6] and 295 nM in assay [7].
Regarding `CC(Nc1cccc(F)c1)c1cc(CO)cc2ncc(N3CCOCC3)nc12` (stereo not drawn) [Compound 100], the Kd in assay [1] stood at 1 nM; in assay [2], 1290 nM; in assay [3], 14100 nM; in assay [4], 1740 nM; in assay [5] it was 295 nM. In addition, the concentration for half-maximal inhibition (IC50) was determined as 145 nM in assay [6] (Homo sapiens, PC-3, 1 h) and 68 nM in assay [7] (Homo sapiens, PC-3, 1 h).
Take `CC(C)NCCNC(=O)c1cc(C(C)Nc2ccc(Cl)c(F)c2)c2nc(N3CCOCC3)cnc2c1` (single isomer, unassigned) [Compound 312a]: the Kd in assay [1] was 1150 nM; in assay [2], 15500 nM; in assay [3], more than 10000 nM; in assay [4], more than 30200 nM; in assay [5], 10000 nM. Moreover, the IC50 in assay [6] (Homo sapiens, PC-3, 1 h) was more than 513 nM; in assay [7] (Homo sapiens, PC-3, 1 h), more than 513 nM.
For `CNCCOCCN(C)C(=O)c1cc(C(C)Nc2ccc(F)c(F)c2)c2nc(N3CCOCC3)cnc2c1` (single isomer, unassigned) [Compound 345b], the Kd in assay [1] was 724 nM; in assay [2], more than 30200 nM; in assay [3] it was more than 30200 nM; in assay [4] it was more than 30200 nM; in assay [5], 22900 nM. For the same compound, the IC50 in assay [6] and in assay [7] was more than 513 nM each time.
Turning to `CNCCNC(=O)c1cc(C(C)Nc2cc(F)cc(F)c2)c2nc(N3CCOCC3)cnc2c1` (single isomer, unassigned) [Compound 406b], the Kd was 141 nM in assay [1]; 7410 nM in assay [2]; more than 30200 nM in assay [3]; 3800 nM in assay [4]; 3470 nM in assay [5]. Besides, the IC50 in assay [6] and in assay [7] was more than 513 nM throughout.
With `CNCCN(C)C(=O)c1cc(C(C)Nc2cc(F)cc(F)c2)c2nc(N3CCOCC3)cnc2c1` (single isomer, unassigned) [Compound 152], the Kd in assay [1] was 10 nM; in assay [2] it was 3980 nM; in assay [3], more than 30200 nM; in assay [4], 8710 nM; in assay [5], 1820 nM. Further, the IC50 was 62 nM in assay [6] and 87 nM in assay [7].
As for `CN(C)C(=O)c1cc(CNc2cc(F)cc(F)c2)c2nc(N3CCOCC3)cnc2c1` [Compound 332], the Kd in assay [1] is 15 nM; in assay [2] it was 2950 nM; in assay [3], more than 30200 nM; in assay [4], 21400 nM; in assay [5] it was 4270 nM. The IC50 in assay [6] (Homo sapiens, PC-3, 1 h) is approximately 316 nM; in assay [7] (Homo sapiens, PC-3, 1 h), 112 nM.
For the compound `CC(Nc1cc(F)c(F)c(F)c1)c1cc(C(=O)N(C)C2CCNC2)cc2ncc(N3CCOCC3)nc12` (single isomer, unassigned) [Compound 296a], the Kd in assay [1] was 1 nM; in assay [2], 1380 nM; in assay [3] it was more than 30200 nM; in assay [4], 3240 nM; in assay [5], 170 nM. Moreover, the IC50 in assay [6] came out at 23 nM; in assay [7], 16 nM.
Turning to `CC(Nc1cc(F)cc(F)c1)c1cc(C(=O)N2CCOCC2)cc2ncc(N3CCOCC3)nc12` (stereo not drawn) [Compound 7], the Kd in assay [1] was 2 nM; in assay [2], 513 nM; in assay [3], more than 30200 nM; in assay [4] it was 10000 nM; in assay [5] it was 245 nM. Besides, the IC50 in assay [6] turned out to be 42 nM; in assay [7], 21 nM.
Take `CC(Nc1cccc(F)c1)c1cc(C(=O)N(C)C)cc2ncc(N3CCOCC3)nc12` (stereo not drawn) [Compound 85]: the Kd is 0.3 nM in assay [1]; 257 nM in assay [2]; 562 nM in assay [3]; 1660 nM in assay [4]; 41 nM in assay [5]. In addition, the IC50 amounted to 48 nM in assay [6] (Homo sapiens, PC-3, 1 h) and 78 nM in assay [7] (Homo sapiens, PC-3, 1 h).
Turning to `CN(Cc1cc(F)cc(F)c1)c1cc(C(=O)N2CCNC(C(F)(F)F)C2)cc2ncc(N3CCOCC3)nc12` (stereo not drawn) [Compound 319b], the Kd in assay [1] is 59 nM; in assay [2] it was 4370 nM; in assay [3] it was more than 30200 nM; in assay [4], more than 30200 nM; in assay [5], 1020 nM. Besides, the IC50 in assay [6] (Homo sapiens, PC-3, 1 h) was more than 513 nM; in assay [7] (Homo sapiens, PC-3, 1 h), more than 513 nM.
As to `CC(Nc1ccc(F)c(F)c1)c1cc(C(=O)N(C)CCN(C)C)cc2ncc(N3CCOCC3)nc12` (single isomer, unassigned) [Compound 349b], the Kd is 14 nM in assay [1]; 4680 nM in assay [2]; more than 30200 nM in assay [3]; 25700 nM in assay [4]; 2750 nM in assay [5]. For the same compound, the half-inhibitory concentration (IC50) in assay [6] turned out to be 479 nM; in assay [7], 302 nM.
With `CC(Nc1cc(F)cc(F)c1)c1cc(CN2CCO[C@H](CO)C2)cc2ncc(N3CCOCC3)nc12` (single isomer, unassigned) [Compound 194], the Kd in assay [1] was 1820 nM; in assay [2], more than 30200 nM; in assay [3] it was more than 30200 nM; in assay [4] it was more than 30200 nM; in assay [5], more than 30200 nM. Also, the IC50 is more than 513 nM in assay [6] (Homo sapiens, PC-3, 1 h) and more than 513 nM in assay [7] (Homo sapiens, PC-3, 1 h).
For the compound `CNCCNC(=O)c1cc([C@@H](C)Oc2cccc(F)c2)c2nc(N3CCOCC3)cnc2c1` [Compound 122], the Kd came to 0.3 nM in assay [1]; 2880 nM in assay [2]; 25700 nM in assay [3]; 5620 nM in assay [4]; 151 nM in assay [5]. For the same compound, the IC50 is 40 nM in assay [6] and 26 nM in assay [7].
Regarding `CC(O)c1cc(C2CCCN2c2cc(F)cc(F)c2)c2nc(N3CCOCC3)cnc2c1` (single isomer, unassigned) [Compound 15], the Kd in assay [1] is 1 nM; in assay [2] it was 234 nM; in assay [3], more than 30200 nM; in assay [4], 372 nM; in assay [5], 43 nM. The IC50 is 4 nM in assay [6] and 2 nM in assay [7].
As to `CC(Nc1ccc(F)c(F)c1)c1cc(C(=O)N2CCN3CCC[C@@H]3C2)cc2ncc(N3CCOCC3)nc12` (single isomer, unassigned) [Compound 347b], the Kd was 2 nM in assay [1]; 3890 nM in assay [2]; more than 30200 nM in assay [3]; 25700 nM in assay [4]; 355 nM in assay [5]. The values for the IC50 in assay [6] and in assay [7] were 85 nM and 60 nM, respectively.
As to `CC(Oc1cccc(F)c1)c1cc(CO)cc2ncc(N3CCOCC3)nc12` (single isomer, unassigned) [Compound 88], the Kd stood at 5 nM in assay [1]; 2140 nM in assay [2]; 14100 nM in assay [3]; 4680 nM in assay [4]; 603 nM in assay [5]. For the same compound, the results for the IC50 in assay [6] and in assay [7] were 178 nM and 89 nM, respectively.
`CC(Oc1cc(F)cc(F)c1)c1cc(C(=O)N(C)CCO)cc2ncc(N3CCOCC3)nc12` (racemic) [Compound 59]: the Kd in assay [1] was 3 nM; in assay [2], 1200 nM; in assay [3], more than 30200 nM; in assay [4] it was 10700 nM; in assay [5], 331 nM. Moreover, the IC50 in assay [6] (Homo sapiens, PC-3, 1 h) was determined as 263 nM; in assay [7] (Homo sapiens, PC-3, 1 h), 110 nM.
